Marks after values point to notes of the source that are not given here.
Assays:
[1] = tested on: MDA-MB-231-Leu orthotopic breast tumor xenografts; test: Metastases of MDA-MB-231-Leu orthotopic breast tumor xenografts; assay type: in vivo, mice; conditions: oral administration, 10 and 30 mg/kg qd
Description: The human breast cancer cell line MDA-MB-231-Leu-D3H2LN-luciferase expressing cell line was purchased from Caliper Life Sciences. This tumor cell line was generated by stable transfection of the firefly luciferase gene expressed from the SV40 promoter and further selected for its metastatic potential upon isolation from a spontaneous lymph node metastasis of MDA-MB-231-Luc cells in immune-compromised mice. The cells were grown in DMEM medium supplemented with 10% fetal bovine serum (FBS, Cat^# SH3007003, Hyclone, Logan, Utah). D-Luciferin firefly/potassium salt (Cat. # L-8220) was purchased from Biosynth International, Inc., Itasca, Ill.). Female nu/nu mice (6 to 8 weeks old) were purchased from Harlan Laboratories. […] Mouse body weights were measured on day 0 and then every 7 days, and bioluminescence image analysis performed at the end of the study using the Caliper Life Sciences (Xenogen) Spectrum imager as detailed in FIG. 6. Images of the primary tumor and potential metastatic tumors in lymph nodes were taken weekly, starting on day 7 post cell implantation. Prior to image acquisition, each mouse were give a 0.2 ml intra-peritoneal injection of D-Luciferin firefly/potassium salt and images were acquired 6-10 minutes post substrate administration. […] Counts were converted to average radiance or mean photon flux; expressed as photons per second (p/s). […]

[2] = molecular target: c-Met (Homo sapiens, UniProt P08581); test: c-Met enzyme inhibition; assay type: biochemical
[3] = tested on: CTG-0192 erlotinib-sensitive NSCLC TumorGraft; test: NSCLC TumorGraft model CTG-0192; assay type: in vivo, mice; conditions: for % Tumor Growth Inhibition: CTG-0192, 32 days
Description: Methods (for the experiments shown in FIGS. 10 and 11) • Female immunocompromised nu/nu mice (Harlan) between 6-9 weeks of age were housed on irradiated papertwist-enriched ⅛″ corncob bedding (Sheperd) in individual HEPA ventilated cages (Innocage® IVC, Innovive USA) on a 12-hour light-dark cycle at 68-74° F. (20-23° C.) and 30-70% humidity. Animals were fed water ad libitum (reverse osmosis, 2 ppm Cl2) and an irradiated Test rodent diet (Teklad 2919) consisting of 19% protein, 9% fat, and 4% fiber. • Tumor Models: Champions TumorGraft models of NSCLC are owned by Champions Oncology. In this study, animals were implanted unilaterally on the right flank with tumor fragments harvested from host animals. […] Erlotinib (manufacturer: OSI Pharmaceuticals; National Drug Code: 50242-062-01; Lot #: US0002) was formulated using 100% PEG-400 as the vehicle according to manufacturer's specifications.
Efficacy measurements: Beginning Day 0, tumor dimensions were measured twice weekly by digital caliper (Fowler Ultra-Cal IV) and data including individual and mean estimated tumor volumes (Mean TV±SEM) were recorded for each group; tumor volume was calculated using the formula TV=width^2×length×0.52. At study completion, percent tumor growth inhibition (% TGI) values were calculated and reported for each treatment group (T) versus control (C) using initial (i) and final (f) tumor measurements by the formula: % TGI=1−Tf−Ti/Cf−C; single agent or combination therapies resulting in a TGI>50 at study completion are considered active in the tested model at the evaluated treatment regimen according to NCI guidelines. Individual mice reporting a tumor volume ≤50% of the Day 0 measurement for two consecutive measurements over a seven day period were considered partial responders (PR). If the PR persisted until study completion, percent tumor regression (% TR) was determined using the formula: % TR=1−Tf/Ti×100; a mean value was calculated if multiple PR mice occurred in one group. Individual mice lacking palpable tumors (<4×4 mm^2 for two consecutive measurements over a seven day period) were classified as complete responders (CR); a CR that persisted until study completion was considered a tumor-free survivor (TFS). TFS animals are excluded from efficacy calculations. Statistical differences in tumor volume were determined using a two-tailed One-Way Analysis of Variance (ANOVA) followed by the Dunett's multiple comparisons test comparing treated groups with control and combinations with standard agent alone when possible. All data collected in this study was managed electronically and stored on a redundant server system.

[4] = PK in rat; conditions: in vivo
[5] = PK in dog; conditions: in vivo
[6] = intravenous, 1 mg/kg i.v. and 3 mg/kg p.o.
[7] = intravenous, 0.5 mg/kg i.v. and p.o.

c-Met, sequence (P08581 25-1390): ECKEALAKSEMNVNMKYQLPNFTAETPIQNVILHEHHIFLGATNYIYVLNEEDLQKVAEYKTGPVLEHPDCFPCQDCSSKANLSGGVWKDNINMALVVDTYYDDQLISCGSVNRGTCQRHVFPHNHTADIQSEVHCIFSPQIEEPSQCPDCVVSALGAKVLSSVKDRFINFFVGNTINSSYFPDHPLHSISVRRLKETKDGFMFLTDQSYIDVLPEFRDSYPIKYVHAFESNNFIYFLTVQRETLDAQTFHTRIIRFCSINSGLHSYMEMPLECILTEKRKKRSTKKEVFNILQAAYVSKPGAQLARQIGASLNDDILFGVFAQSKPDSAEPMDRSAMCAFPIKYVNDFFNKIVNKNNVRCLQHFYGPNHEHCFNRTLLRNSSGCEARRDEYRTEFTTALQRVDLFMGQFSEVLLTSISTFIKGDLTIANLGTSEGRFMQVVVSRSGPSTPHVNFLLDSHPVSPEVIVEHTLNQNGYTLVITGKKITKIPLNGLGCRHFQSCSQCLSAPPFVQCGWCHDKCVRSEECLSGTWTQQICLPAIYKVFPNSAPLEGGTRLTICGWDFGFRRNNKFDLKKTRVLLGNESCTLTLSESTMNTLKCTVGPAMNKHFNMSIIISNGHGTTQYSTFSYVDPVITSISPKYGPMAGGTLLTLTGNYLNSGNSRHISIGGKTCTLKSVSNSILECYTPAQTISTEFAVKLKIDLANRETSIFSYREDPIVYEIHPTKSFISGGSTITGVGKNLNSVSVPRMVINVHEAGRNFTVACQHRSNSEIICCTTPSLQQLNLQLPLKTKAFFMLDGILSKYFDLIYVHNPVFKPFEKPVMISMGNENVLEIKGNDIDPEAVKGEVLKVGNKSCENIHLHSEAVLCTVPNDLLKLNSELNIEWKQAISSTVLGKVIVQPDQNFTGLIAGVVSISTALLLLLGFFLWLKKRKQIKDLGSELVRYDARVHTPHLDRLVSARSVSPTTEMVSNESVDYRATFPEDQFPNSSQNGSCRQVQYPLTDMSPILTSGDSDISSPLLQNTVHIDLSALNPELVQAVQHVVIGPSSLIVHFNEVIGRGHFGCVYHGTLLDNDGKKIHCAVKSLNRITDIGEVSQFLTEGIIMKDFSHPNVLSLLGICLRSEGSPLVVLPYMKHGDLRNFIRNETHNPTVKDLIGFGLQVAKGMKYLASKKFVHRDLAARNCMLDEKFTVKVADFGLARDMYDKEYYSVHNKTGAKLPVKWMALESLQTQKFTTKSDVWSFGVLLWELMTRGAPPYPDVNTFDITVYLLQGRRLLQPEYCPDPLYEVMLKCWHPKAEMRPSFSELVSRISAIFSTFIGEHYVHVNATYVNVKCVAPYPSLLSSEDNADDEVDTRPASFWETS

COc1cc2nccc(Oc3ccc(NC(=O)c4cn(C(C)C)c(=O)n(-c5ccc(F)cc5)c4=O)cc3F)c2cc1OC [CEP-40783, 3-(4-Fluorophenyl)-1-isopropyl-2,4-dioxo-1,2,3,4-tetrahydropyrimidine-5-carboxylic acid [4-(6,7-dimethoxyquinolin-4-yloxy)-3-fluorophenyl]-amide]
spontaneous lymph node and pulmonary metastatic tumor burden [1]: efficacious in reducing spontaneous lymph node and pulmonary metastatic tumor burden | IC50 [2]: 0.012 µM | acquired resistance during the treatment phase ([3]; CTG-0192): no acquired resistance | % Tumor Growth Inhibition ([3]; 10 mg/kg po/qd): 85%* | % Tumor Growth Inhibition ([3]; 30 mg/kg po/qd): 71%* | tumor response, single agent ([3]; CTG-0192, also after dosing discontinued (day 34)): significant TGI/tumor stasis was maintained even after dosing was discontinued | Cmax ([4]; 1 mg/kg i.v. and 3 mg/kg p.o.): 593 ng/mL | Vd [4, 6]: 2.6 L/kg | clearance [4, 6]: 1.4 mL/min/kg | half-life ([4]; iv, 1 mg/kg i.v., read-out: t1/2 i.v. (converted)): 21.5 h | bioavailability ([4]; oral, 1 mg/kg i.v. and 3 mg/kg p.o.): 57% | AUC(0-t) ([4]; po, 3 mg/kg p.o.): 16300 ng·h/mL | Cmax ([5]; 0.5 mg/kg i.v. and p.o.): 1170 ng/mL | Vd [5, 7]: 1.3 L/kg | clearance [5, 7]: 0.5 mL/min/kg | half-life ([5]; iv, 0.5 mg/kg i.v., read-out: t1/2 i.v. (converted)): 27.6 h | bioavailability ([5]; oral, 0.5 mg/kg i.v. and p.o.): 100% | AUC(0-t) ([5]; po, 0.5 mg/kg p.o.): 14400 ng·h/mL
